These results are taken from publication PMC7954794, “Protein context shapes the specificity of SH3 domain-mediated interactions in vivo” (Nature Communications, 2021).

In the experiment the test system is 575 putative partners (preys) of 22 WT SH3-containing proteins. As to the kind of experiment: DHFR-PCA on solid medium, WT and SH3-deleted baits (Fig. 1B). The format is cell-based, Saccharomyces cerevisiae. More on the design: key to Score: 0: SH3-independent; 1: SH3-dependent PPIs; 2: SH3-inhibited PPIs. The conditions noted are these: for SH3-dependent PPIs: number of PPIs, SH3 domain in its own protein, DHFR-PCA, Fig2D,S2F. In outline: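 In S. cerevisiae, 22 SH3-containing baits fused genomically to DHFR F[1,2], either WT or with each SH3 replaced via CRISPR by a poly-Gly/Ser linker, screened against 575 DHFR F[3] preys plus 40 negative controls in 1536 arrays, preys duplicated at randomized positions.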

With CDC25, the “SH3-dependent PPIs” value turned out to be 3.

As for RVS167, the “SH3-dependent PPIs” value came out at 31.

In the case of YAL005C, the “medrep (log2 median colony size normalized to plate background, PCA score)” value (bait SLA1-3, DHFR-PCA, label = prey, Replicates 4 (2 for YCR009C, YDR388W, YIL033C)) is recorded as 5.601. Besides, under “bait SLA1-3, label = prey”, the Score came out at 0.
